From publication PMC5729604, “Dual inhibitors of hepatitis C virus and hepatocellular carcinoma: design, synthesis and docking studies” (Future Science OA, 2017)
“Also recorded” adds a separate entry of the source.

Assays:
[1] = test system: human peripheral blood mononuclear cells (PBMCs); type: cell-based; details: 72 h
Description: The safe compounds on RBCs (5a-g, 5i-l, 5p-r, 5v-w, 6b-g) were subjected to the in vitro cytotoxicity assay on human peripheral blood mononuclear cells (PBMCs). Viability of cells was measured using neutral red uptake assay as described by Borenfreund and Puerner to determine the concentrations of each compound that were not cytotoxic. The results were interpreted to calculate both the lethal concentration that kills 50% of cells (LD50) and the maximum safe concentration that causes 100% viability (LD0) of each compound using GraphPad InStat 3.0 software (Figure 6 & Supplementary Table 3).
The PBMCs were isolated by density gradient centrifugation technique as described by Boyum. Blood samples were freshly collected into heparinized or ethylenediaminetetraacetic acid sterile tubes. Blood was diluted using equal volume of RPMI-1640 medium containing 25 mM HEPES and then layered over equal volume of Ficoll-Pague™ Plus (Fisher BioReagents™ Lymphocyte Separation Medium-LSM, PA, USA) and centrifuged (2000 r.p.m. for 30 min at acceleration and deceleration speeds zero & zero) at room temperature. The buffy mononuclear cell layer was collected using sterile Pasteur pipette into 50 ml sterile Falcon tube and washed twice in phosphate-buffered saline (Sigma-Aldrich) using centrifugation (1650 r.p.m. for 5 min). The isolated PBMCs viability was determined by hemocytometer count using the trypan blue exclusion method. The PBMCs were resuspended at 1 × 10^6 cells/ml in RPMI-1640 medium containing 25 mM HEPES supplemented with 10% heat-inactivated FBS. The appropriate number of cells was chosen to be 1 × 10^5 cells/well (100 μl of the prepared suspension).
A 2 mg/ml stock solution of each compound was prepared in DMF and filtered using a 0.2 μM syringe filter. The desired concentrations (20, 10, 5, 2.5 and 1.25 μg/ml) were prepared using serial dilution in a 96-well plate. Compound wells were prepared by adding 100 μl of the previously prepared concentrations to a suspension of 1 × 10^5 PBMCs in 100 μl culture media. Parallel concentrations of the solvent were prepared to be used as controls. Control wells were prepared by adding 100 μl culture media to a suspension of 1 × 10^5 PBMCs in 100 μl culture media. Blank wells contained 200 μl of culture media only (without cells or compound solution). Each set of samples was pipetted in duplicate. The plate was then gently shaken then incubated at 37°C, 5% CO2 for 72 h.
After incubation, neutral red assay was performed as described previously, and surviving cell fraction was calculated according to the previously mentioned equation. Also, the results were interpreted to calculate both the lethal concentration that kills 50% of cells (LD50) and the maximum safe concentration that cause 100% viability (LD0) of each compound using GraphPad InStat 3.0 software.

[2] = test system: HepG2 cells infected with hepatitis C virus; assay: In vitro anti-HCV screening, qualitative RT-PCR of viral RNA; type: cell-based, HCV genotype-4; details: for Result (anti-HCV screening): at the used dose (below LD0 on HepG2 and PBMCs), 72 h, Positive = disappearance of viral RNA-amplified product (174 bp)
Description: The safe compounds on RBCs (5a-g, 5i-l, 5p-r, 5v-w, 6b-g) were screened for their in vitro anti-HCV activity using the HCC HepG2 cell line infected with the HCV. Monitoring of the HCV viremia pre- and post-antiviral therapy through the detection of viral RNA using qualitative reverse transcription-PCR (RT-PCR) was adopted in the present investigation. This technique was reported to be the most frequently used, reliable and sensitive technique. Inhibition of viral replication was detected by amplification of viral RNA segments by the RT-PCR technique both in the cultivated infected cells alone (as a positive control) and at the specified dose for each test compound at optimal temperature. The test compound was considered to be active when it can inhibit the viral replication inside the HCV-infected HepG2 cells, as evidenced by the disappearance of the viral RNA-amplified products detected by the RT-PCR (compared with positive control).
The used concentration of each compound was chosen to be lower than the LD0 on HepG2 cells. Therefore, 100% viability of HepG2 cells was maintained, to make sure that any inhibitory effect was due to anti-HCV activity rather than cytotoxic activity on HepG2 cells. Moreover, the used concentrations were also chosen to be lower than the LD0 on PBMCs. Consequently, these doses could be used for inhibition of HCV in normal cells infected with the virus.
HepG2 cells were washed twice in RPMI-1640 medium supplemented with 200 μM L-glutamine and […] HEPES buffer. The cells were suspended at 12 × 10^4 cells/ml in RPMI culture medium (RPMI supplemented medium and 10% FBS). The appropriate number of cells to be used was chosen to be 12 × 10^3 cells/well (100 μl of the prepared suspension), and the cells were left to adhere on the polystyrene […] plates in an incubator at 37°C, 5% CO2 and 95% humidity for 24 h. The cells were washed once using RPMI supplemented medium, then infected with 2% HCV-infected serum (the used serum was a pole of ten patients infected with HCV genotype-4 with viral loads: 3.2–9 million IU/ml, G4 HCV RNA) in RPMI culture medium containing 8% FBS. The used dose of each compound was chosen so as to maintain 100% viability of the HepG2 cell line (the dose was lower than the LD0 of each compound on HepG2 cells as calculated from the in vitro anticancer screening). It was reported that, cultured HepG2 cells lost their biotransformation activity due to decrease in cytochrome (CYP) transcription. This waived its effect on the compounds stability during the test. Negative control is HepG2 cells with culture medium without addition of HCV infected serum or addition of tested compounds. Positive control is HepG2 cells with culture medium and infected HCV serum but without addition of tested compounds. After addition of the compounds, the plates were incubated at 37°C, 5% CO2 and 95% humidity for 72 h, followed by RNA extraction. The RNA strand was detected by RT-PCR using HCV-specific primers to the […] region of the virus.
RNA was extracted from HepG2 cells using the method described by El-Awady et al.. Culture cells were mixed with 200 μl of 4 mol/l guanidinium isothiocyanate (Fischer Bioreagents) containing 25 mmol/l sodium citrate (MP Biomedicals, CA, USA), 0.5% sarkosyl (Fischer Bioreagents), 0.1 mol/l β-mercaptoethanol (MP Biomedicals), and 100 μl sodium acetate (Merck). The lysed cells were mixed with an equal volume of phenol, chloroform and isoamyl alcohol (25:24:1, pH 4; Fischer Bioreagents). After vortexing, the mixture was centrifuged (14,000 r.p.m. for 10 min) at 4°C. The aqueous layer was collected and mixed with an equal volume of isopropanol (Acros Organics, Geel, Belgium). After incubation at -20°C overnight, RNA was precipitated by centrifugation (14,000 r.p.m. for 30 min) at 4°C, and the precipitated RNA was washed twice with 70% ethanol. […]

Structure (SMILES)	(LD0) PBMCs [1]	LD0 [1]	LD50 [1]	in vitro anti-HCV activity, in words ([2]; HCV-infected HepG2 cells, RT-PCR)	Result (anti-HCV screening) [2]	LD50 (PBMCs) [1]
CC(=NN=C1SC(=Cc2cn(-c3ccccc3)nc2-c2ccccc2)C(=O)N1c1ccccc1)c1cc2ccccc2o1 [Compound 5a, 2-[1-(Benzofuran-2-yl)ethylidenehydrazono]-5-[(1,3-Diphenyl-1H-pyrazol-4-yl)methylene]-3-phenylthiazolidin-4-one]	11.17 µg/mL	11.17 µg/mL	13.99 µg/mL	showed in vitro anti-HCV activity; also recorded: exhibited in vitro anti-HCV activity	Positive	
CC(=NN=C1SC(=Cc2cn(-c3ccccc3)nc2-c2ccc(Cl)cc2)C(=O)N1c1ccccc1)c1cc2ccccc2o1 [Compound 5b, 2-[1-(Benzofuran-2-yl)ethylidenehydrazono]-5-{[3-(4-chlorophenyl)-1-phenyl-1H-pyrazol-4-yl]methylene}-3-phenylthiazolidin-4-one]	5.83 µg/mL	5.83 µg/mL	92.27 µg/mL		Negative	
COc1ccc(-c2nn(-c3ccccc3)cc2C=C2SC(=NN=C(C)c3cc4ccccc4o3)N(c3ccccc3)C2=O)cc1 [Compound 5c, 2-[1-(Benzofuran-2-yl)ethylidenehydrazono]-5-{[3-(4-methoxyphenyl)-1-phenyl-1H-pyrazol-4-yl]methylene}-3-phenylthiazolidin-4-one]	32.45 µg/mL	32.45 µg/mL	139.19 µg/mL		Negative	
CC(=NN=C1SC(=Cc2cn(-c3ccccc3)nc2-c2ccccc2)C(=O)N1c1ccc(Cl)cc1)c1cc2ccccc2o1 [Compound 5d, 2-[1-(Benzofuran-2-yl)ethylidenehydrazono]-5-[(1,3-Diphenyl-1H-pyrazol-4-yl)methylene]-3-(4-chlorophenyl)thiazolidin-4-one]	11.43 µg/mL	11.43 µg/mL	160.43 µg/mL		Negative	
CC(=NN=C1SC(=Cc2cn(-c3ccccc3)nc2-c2ccc(Cl)cc2)C(=O)N1c1ccc(Cl)cc1)c1cc2ccccc2o1 [Compound 5e, 2-[1-(Benzofuran-2-yl)ethylidenehydrazono]-5-{[3-(4-chlorophenyl)-1-phenyl-1H-pyrazol-4-yl]methylene}-3-(4-chlorophenyl)thiazolidin-4-one]	4.26 µg/mL	4.26 µg/mL	117.12 µg/mL		Negative	
COc1ccc(-c2nn(-c3ccccc3)cc2C=C2SC(=NN=C(C)c3cc4ccccc4o3)N(c3ccc(Cl)cc3)C2=O)cc1 [Compound 5f, 2-[1-(Benzofuran-2-yl)ethylidenehydrazono]-5-{[3-(4-methoxyphenyl)-1-phenyl-1H-pyrazol-4-yl]methylene}-3-(4-chlorophenyl)thiazolidin-4-one]	5.83 µg/mL	5.83 µg/mL	259.71 µg/mL		Negative	259.71 µg/mL
COc1ccc(N2C(=O)C(=Cc3cn(-c4ccccc4)nc3-c3ccccc3)SC2=NN=C(C)c2cc3ccccc3o2)cc1 [Compound 5g, 2-[1-(Benzofuran-2-yl)ethylidenehydrazono]-5-[(1,3-Diphenyl-1H-pyrazol-4-yl)methylene]-3-(4-methoxyphenyl)thiazolidin-4-one]	8.88 µg/mL	8.88 µg/mL	39.01 µg/mL		Negative	
